This assay deals with Serine/threonine-protein kinase mTOR (Homo sapiens) (UniProt P42345). The assay is described as follows: mTOR FRB domain ligand binding – biophysical, NMR (AID 1648). Conditions: NMR binding to FRB domain, chemical shift.

Results on 79 compounds are retold here after PubChem BioAssay AID1648 (Sanford-Burnham Center for Chemical Genomics, 2009).

The Kd is the concentration at which binding is half-saturated.

Structures are written as SMILES. Active and inactive are the calls of the source. How the calls were made is not given here.

Chain of Serine/threonine-protein kinase mTOR (Homo sapiens) (P42345 2015-2114): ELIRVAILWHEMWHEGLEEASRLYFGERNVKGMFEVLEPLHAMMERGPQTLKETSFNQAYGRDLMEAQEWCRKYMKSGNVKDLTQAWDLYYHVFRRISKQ

`Cc1nnc(SCC(N)=O)c2ccccc12`: the Kd is > 4 mM (inactive).

Take `O=C(O)c1ccc(-n2ccnc2)cc1`: the Kd was > 4 mM (inactive).

Take `O=C(c1ccc(F)cc1)N1CCOCC1`: the Kd is > 4 mM (inactive).

Regarding `COc1ccc(-c2cc(=O)c3c(OC(C)=O)cc(OC(C)=O)cc3o2)cc1`, the Kd was > 4 mM (inactive).

With `Cc1cc(C(=O)NCc2cccs2)cs1`, the Kd was > 4 mM (inactive).

In the case of `CP(C)(=O)c1cccc(C(=O)O)c1`, the Kd was > 4 mM (inactive).

With `O=C(O)CN1C(=O)c2cccc([N+](=O)[O-])c2C1=O`, the Kd is > 4 mM (inactive).

As for `Cc1nc2nc(Cc3ccccc3)[nH]n2c(=O)c1Cl`, the Kd is > 4 mM (inactive).

In the case of `Cc1occc1C(=O)Nc1nccs1`, the Kd was > 4 mM (inactive).

For `c1ccc2[nH]c(CCn3cncn3)nc2c1`, the Kd was > 4 mM (inactive).

With `Cc1nccn1CCC(=O)O`, the Kd is > 4 mM (inactive).

`O=C1NC(=S)NC(=O)C1=Cc1ccncc1`: the Kd was > 4 mM (inactive).

As to `O=C(O)Cn1cc(C(F)(F)F)ccc1=O`, the Kd was > 4 mM (inactive).

Consider `CC(=O)NC1=NN(c2ccccc2)C(=O)C1`, for which the Kd is > 4 mM (inactive).

For the compound `NN1C(=O)CSC1=Nc1ccccc1`, the Kd is > 4 mM (inactive).

Regarding `C[C@]12CCC3C(CC[C@]4(O)C[C@@H](O)CC[C@]34C=O)[C@@]1(O)CCC2C1=CC(=O)OC1` (some centres undefined), the Kd was > 4 mM (inactive).

As for `O=C1CSC(=O)N1CN1CCOCC1`, the Kd is > 4 mM (inactive).

Consider `O=C(CO)N/N=C/c1ccccc1F`, for which the Kd was > 4 mM (inactive).

Take `O=C(O)c1snnc1-c1ccccc1`: the Kd was > 4 mM (inactive).

With `Cc1nn(C)c(N2CCOCC2)c1N`, the Kd is > 4 mM (inactive).

Regarding `Cc1nn2c(nc1=O)SCC(c1ccccc1)=N2`, the Kd is > 4 mM (inactive).

For the compound `Oc1cc(O)c2c(c1)O[C@H](c1ccc(O)c(O)c1)[C@@H](O)C2`, the Kd is > 4 mM (inactive).

With `CC1CCN(S(=O)(=O)N(C)C)CC1`, the Kd is > 4 mM (inactive).

For the compound `O=C1CSC(=Nc2cc(Cl)ccc2Cl)N1`, the Kd is > 4 mM (inactive).

Take `Clc1ccccc1OCc1nc(-c2ccncc2)no1`: the Kd is > 4 mM (inactive).

Turning to `CC(C)c1nnc(N)s1`, the Kd was > 4 mM (inactive).

For the compound `CSc1ncc(CO)n1Cc1ccccc1`, the Kd was > 4 mM (inactive).

Regarding `CN=C(C)c1c(O)n(C)c(=S)n(C)c1=O`, the Kd was > 4 mM (inactive).

Turning to `O=C(O)c1cccnc1Oc1ccccc1`, the Kd was > 4 mM (inactive).

As to `NCc1cccc2c1OCCCO2`, the Kd was > 4 mM (inactive).

On to `OCc1ccc2c(c1)CCO2`, for which the Kd is > 4 mM (inactive).

On to `c1ccc(CN2CCC3(CC2)Nc2ccccc2CO3)cc1`, for which the Kd was > 4 mM (inactive).

For `O=C(Nc1ccc2c(c1)OCCO2)c1c(F)cccc1F`, the Kd was > 4 mM (inactive).

Regarding `O=C(O)c1cccc2nsnc12`, the Kd is > 4 mM (inactive).

With `Nc1c(/C=C2\C=Nc3ccccc32)c(=O)nc2scnn12`, the Kd was > 4 mM (inactive).

As to `Cc1cc(=O)n2[nH]c(N)nc2n1`, the Kd was > 4 mM (inactive).

As for `O=c1[nH]c2sc3c(c2c2ncnn12)CCCC3`, the Kd is > 4 mM (inactive).

As for `O=C(O)CSc1nc2ccccc2c(=O)[nH]1`, the Kd is > 4 mM (inactive).

Consider `NC(=O)CSc1ccccn1`, for which the Kd is > 4 mM (inactive).

Turning to `O=C(Nc1c[nH]c(=O)[nH]c1=O)c1ccccc1F`, the Kd is > 4 mM (inactive).

As to `CC(=O)c1c(O)n(C)c(=S)n(C)c1=O`, the Kd is > 4 mM (inactive).

As for `O=C(O)c1ccc(N2CCCCC2)cc1`, the Kd is > 4 mM (inactive).

For the compound `CC(=O)Nc1ccccc1-c1ccccc1NC(C)=O`, the Kd was > 4 mM (inactive).

Consider `CS(=O)(=O)N1CCN(C(=O)Cc2cccs2)CC1`, for which the Kd was > 4 mM (inactive).

For `COc1ccc(/C=C2/NC(=S)NC2=O)cc1`, the Kd is > 4 mM (inactive).

Regarding `CN1CCC=C(C(=O)O)C1`, the Kd was > 4 mM (inactive).

For the compound `CCOc1ccc(C)cc1S(=O)(=O)n1ccnc1`, the Kd was > 4 mM (inactive).

As for `Cc1cc2ncc(C(=O)O)c(C)n2n1`, the Kd was > 4 mM (inactive).

`CC1(C)N=C2C(=N)C=CC=C2N1O`: the Kd was > 4 mM (inactive).

Take `CC(=O)Nc1ccc(C(=O)NC2CCSC2=O)cc1` (centres undefined): the Kd was > 4 mM (inactive).

With `CCC(=O)NC(=S)Nc1ccc(N2CCOCC2)cc1`, the Kd is > 4 mM (inactive).

In the case of `Nc1cc2ccccc2cn1`, the Kd is > 4 mM (inactive).

On to `Cn1cc(Cl)c(C(=O)Nc2ccncc2)n1`, for which the Kd was > 4 mM (inactive).

As for `Cn1nc(C(=O)N2CCCC2)c2ccccc2c1=O`, the Kd is > 4 mM (inactive).

As for `NC(=O)c1ccc(N2C(=O)C=CC2=O)cc1Cl`, the Kd is > 4 mM (inactive).

`Cc1cc2c(=O)n(C)c(SCC(N)=O)nc2s1`: the Kd is > 4 mM (inactive).

Take `O=C(NN1C(=O)C2C3C=CC(C3)C2C1=O)C1CC=CCC1` (centres undefined): the Kd is > 4 mM (inactive).

Take `COc1ccc(Cl)cc1NC(=O)c1ccco1`: the Kd is > 4 mM (inactive).

On to `S=C(c1cccnc1)N1CCOCC1`, for which the Kd was > 4 mM (inactive).

As for `Nc1cccnc1Oc1ccc(F)cc1F`, the Kd was > 4 mM (inactive).

Regarding `CN(c1ccc(C(=O)N2CCCCC2)cc1)S(C)(=O)=O`, the Kd was > 4 mM (inactive).

For the compound `O=C(O)c1ccc2ncccc2c1`, the Kd was > 4 mM (inactive).

As for `COC(=O)c1ccc2nc[nH]c2c1`, the Kd was > 4 mM (inactive).

As to `NC(=O)C1CCN(CN2C(=O)c3ccccc3C2=O)CC1`, the Kd is > 4 mM (inactive).

For `CCNC(=O)CC1Nc2ccccc2NC1=O` (centres undefined), the Kd was > 4 mM (inactive).

Take `CCOC(=O)CNC(=O)CSc1nnc(C)c(=O)[nH]1`: the Kd was > 4 mM (inactive).

In the case of `CNC(=O)n1ccc(C(=O)N2CCCCC2)n1`, the Kd was > 4 mM (inactive).

As for `COc1ccc(Cl)c(S(=O)(=O)N2CCCC2)c1`, the Kd is > 4 mM (inactive).

As for `Cn1ncc(N2CCOCC2)c(Cl)c1=O`, the Kd was > 4 mM (inactive).

For `COc1ccc(N=C2NC(=O)CS2)cc1`, the Kd was > 4 mM (inactive).

`COC(=O)C1=C(C)N(Cc2ccco2)C(=O)C1`: the Kd is > 4 mM (inactive).

Take `COc1cc(OC)c2c(=O)c(OC)c(-c3ccc(OC)c(OC)c3)oc2c1`: the Kd was > 4 mM (inactive).

For the compound `OCC(O)Cc1ccc2c(c1)OCO2` (centres undefined), the Kd was > 4 mM (inactive).

For `O=C(NC(=S)NC1CCSC1=O)c1ccco1` (centres undefined), the Kd is > 4 mM (inactive).

Consider `CCN1CCc2c(sc(N)c2C#N)C1`, for which the Kd is > 4 mM (inactive).

For the compound `c1ccc(-c2noc(-c3ccco3)n2)nc1`, the Kd is > 4 mM (inactive).

Turning to `O=C(Cc1c(F)cccc1Cl)Nc1ccon1`, the Kd was > 4 mM (inactive).

For the compound `CSc1nc2nccc(N)n2n1`, the Kd was > 4 mM (inactive).

`OCc1sccc1-n1cccc1`: the Kd was > 4 mM (inactive).
